Assay results as given in ChEMBL document CHEMBL1201862, “PubChem BioAssay data set” (2004).
Values belong to the molecule of their own block, whether it stands above or below them. Active and inactive are the calls of the source.

Legend:
Type in all cases: functional
[1] = target: T1, Coagulation factor XII (Homo sapiens, UniProt P00748);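 note: activated factor XIIa alpha cleaving a fluorogenic AMC peptide substrate; inhibitor potency from loss of enzyme activity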
T1 sequence (P00748 whole entry): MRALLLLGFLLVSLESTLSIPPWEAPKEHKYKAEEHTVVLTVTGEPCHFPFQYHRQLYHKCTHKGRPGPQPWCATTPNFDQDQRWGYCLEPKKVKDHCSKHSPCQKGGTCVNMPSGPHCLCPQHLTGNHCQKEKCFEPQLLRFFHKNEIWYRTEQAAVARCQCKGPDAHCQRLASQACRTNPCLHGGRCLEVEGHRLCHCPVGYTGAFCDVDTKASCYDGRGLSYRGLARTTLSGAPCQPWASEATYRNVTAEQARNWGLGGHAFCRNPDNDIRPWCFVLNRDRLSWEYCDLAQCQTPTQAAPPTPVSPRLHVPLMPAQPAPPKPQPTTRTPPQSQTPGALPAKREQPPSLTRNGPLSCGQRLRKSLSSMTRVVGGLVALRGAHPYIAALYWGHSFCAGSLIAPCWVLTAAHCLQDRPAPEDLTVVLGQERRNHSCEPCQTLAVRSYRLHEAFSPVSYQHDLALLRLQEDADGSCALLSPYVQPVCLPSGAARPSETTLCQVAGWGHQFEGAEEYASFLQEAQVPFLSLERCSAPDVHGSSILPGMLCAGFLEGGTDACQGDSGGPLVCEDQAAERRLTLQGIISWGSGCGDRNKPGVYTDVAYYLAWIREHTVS

[2] = target: Intestinal-type alkaline phosphatase (Homo sapiens, UniProt P09923); assay: human intestinal alkaline phosphatase activators, dose response, biochemical, luminescence, uHTS hits (AID 463120)
[3] = target: T2, Kappa-type opioid receptor (Homo sapiens, UniProt P41145); assay: SAR analysis of small molecule antagonists of the kappa opioid receptor via a luminescent beta-arrestin assay - Set 5. [Related pubchem assays (depositor defined):AID1778, AID1785]
[4] = target: T2, Kappa-type opioid receptor; assay: SAR analysis of small molecule antagonists of the kappa opioid receptor via a luminescent beta-arrestin assay - Set 4. [Related pubchem assays (depositor defined):AID1777, AID1778, AID1785, AID1786, AID1966, AID2133, AID2136, AID2285]
[5] = target: T3, Short transient receptor potential channel 4 (Mus musculus, UniProt Q9QUQ5); assay: calcium entry via TRPC4 opening agents – cell-based, HEK293 TRPC4/mu-opioid, Fluo-4 calcium, dose response (AID 434937)
T3 sequence (Q9QUQ5 whole entry): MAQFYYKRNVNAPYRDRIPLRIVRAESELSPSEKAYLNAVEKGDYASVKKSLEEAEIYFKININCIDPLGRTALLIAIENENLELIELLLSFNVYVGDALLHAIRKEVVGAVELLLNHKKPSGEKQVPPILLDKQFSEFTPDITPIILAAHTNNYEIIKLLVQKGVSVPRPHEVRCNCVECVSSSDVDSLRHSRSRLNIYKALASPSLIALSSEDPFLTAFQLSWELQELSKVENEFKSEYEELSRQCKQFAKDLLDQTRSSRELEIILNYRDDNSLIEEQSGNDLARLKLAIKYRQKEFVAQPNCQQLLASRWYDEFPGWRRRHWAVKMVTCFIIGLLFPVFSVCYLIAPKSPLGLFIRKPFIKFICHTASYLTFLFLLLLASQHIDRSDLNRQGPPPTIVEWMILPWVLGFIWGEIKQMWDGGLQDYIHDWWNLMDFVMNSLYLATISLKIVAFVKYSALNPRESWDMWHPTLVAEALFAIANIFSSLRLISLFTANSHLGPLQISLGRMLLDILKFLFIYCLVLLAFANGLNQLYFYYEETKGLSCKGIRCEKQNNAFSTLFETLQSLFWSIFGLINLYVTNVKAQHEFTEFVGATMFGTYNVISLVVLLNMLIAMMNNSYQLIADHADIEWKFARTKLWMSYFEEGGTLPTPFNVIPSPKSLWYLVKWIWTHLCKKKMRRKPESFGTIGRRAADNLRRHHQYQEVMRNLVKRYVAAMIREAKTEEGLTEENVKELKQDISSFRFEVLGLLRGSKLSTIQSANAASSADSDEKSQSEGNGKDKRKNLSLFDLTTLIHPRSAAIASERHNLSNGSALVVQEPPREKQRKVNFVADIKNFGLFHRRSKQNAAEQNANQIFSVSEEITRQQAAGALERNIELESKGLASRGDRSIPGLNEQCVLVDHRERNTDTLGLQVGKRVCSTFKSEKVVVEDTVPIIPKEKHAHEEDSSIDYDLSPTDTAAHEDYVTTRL

T2 sequence (P41145 whole entry): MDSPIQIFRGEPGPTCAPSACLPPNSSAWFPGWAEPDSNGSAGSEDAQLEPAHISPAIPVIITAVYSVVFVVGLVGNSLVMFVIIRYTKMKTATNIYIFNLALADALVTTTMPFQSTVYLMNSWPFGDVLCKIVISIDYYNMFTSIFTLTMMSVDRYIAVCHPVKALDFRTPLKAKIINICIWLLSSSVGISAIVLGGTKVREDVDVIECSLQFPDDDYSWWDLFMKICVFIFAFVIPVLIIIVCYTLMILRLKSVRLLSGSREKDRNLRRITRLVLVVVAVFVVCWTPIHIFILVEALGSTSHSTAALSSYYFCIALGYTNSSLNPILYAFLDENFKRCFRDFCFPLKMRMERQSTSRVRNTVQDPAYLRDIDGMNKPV
Intestinal-type alkaline phosphatase, sequence (P09923 whole entry): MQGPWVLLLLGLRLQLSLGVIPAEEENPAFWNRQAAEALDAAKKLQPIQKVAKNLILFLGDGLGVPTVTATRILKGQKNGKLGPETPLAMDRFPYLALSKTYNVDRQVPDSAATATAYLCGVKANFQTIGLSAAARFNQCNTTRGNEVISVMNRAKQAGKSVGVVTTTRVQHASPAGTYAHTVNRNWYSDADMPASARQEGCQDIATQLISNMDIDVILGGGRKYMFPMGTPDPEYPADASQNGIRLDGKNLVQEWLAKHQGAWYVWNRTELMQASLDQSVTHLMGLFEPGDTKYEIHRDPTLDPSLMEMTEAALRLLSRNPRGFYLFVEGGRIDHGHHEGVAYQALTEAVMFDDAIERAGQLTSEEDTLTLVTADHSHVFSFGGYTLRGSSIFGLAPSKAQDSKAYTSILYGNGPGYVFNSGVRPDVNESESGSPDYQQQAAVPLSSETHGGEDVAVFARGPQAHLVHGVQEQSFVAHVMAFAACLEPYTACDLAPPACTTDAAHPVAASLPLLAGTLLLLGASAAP

IC50 [3]: > 20 µM (inactive)
IC50 [4]: > 20 µM (inactive)
SMILES: O=C(Cn1c(=O)c2cccn2c2cc(Br)cnc21)NCCCN1CCN(c2ccccc2)CC1

EC50 [5]: 3.76 µM (active)
SMILES: CCCN(CCC)CCCNC(=O)CNC(=O)c1nn(-c2ccc(OC)cc2)c(=O)c2ccccc12

IC50 [1]: > 50 µM (inactive)
SMILES: COc1cc(NC(=O)c2cc3nc(C4CC4)cc(C(F)(F)F)n3n2)c(OC)cc1Cl

The next lines start with the molecule.

SMILES: Cc1c(C(=O)C2=C(O)C(=O)N(CCN3CCOCC3)C2c2cccs2)cnn1-c1ccccc1 (stereo unspecified)
IC50 [1]: > 50 µM (inactive)

SMILES: O=C(N/N=C/c1cccc([N+](=O)[O-])c1)c1nc(O)c2ccccc2n1
EC50 [2]: 8.34 µM (active)
